Measurements as given in ChEMBL document CHEMBL1152582, “Discovery of trans-N-[1-(2-fluorophenyl)-3-pyrazolyl]-3-oxospiro[6-azaisobenzofuran-1(3H),1'-cyclohexane]-4'-carboxamide, a potent and orally active neuropeptide Y Y5 receptor antagonist” (Bioorg Med Chem, 2009).
Calls of active or inactive are those of the source. No cut-off for these calls is given here.

How the values were obtained:
physchem = conditions: buffer, pH 7.4
Description: Lipophilicity, log D at pH 7.4

[1] = molecular target: T1, Neuropeptide Y receptor type 5 (Homo sapiens, UniProt Q15761)
T1 sequence (Q15761 whole entry): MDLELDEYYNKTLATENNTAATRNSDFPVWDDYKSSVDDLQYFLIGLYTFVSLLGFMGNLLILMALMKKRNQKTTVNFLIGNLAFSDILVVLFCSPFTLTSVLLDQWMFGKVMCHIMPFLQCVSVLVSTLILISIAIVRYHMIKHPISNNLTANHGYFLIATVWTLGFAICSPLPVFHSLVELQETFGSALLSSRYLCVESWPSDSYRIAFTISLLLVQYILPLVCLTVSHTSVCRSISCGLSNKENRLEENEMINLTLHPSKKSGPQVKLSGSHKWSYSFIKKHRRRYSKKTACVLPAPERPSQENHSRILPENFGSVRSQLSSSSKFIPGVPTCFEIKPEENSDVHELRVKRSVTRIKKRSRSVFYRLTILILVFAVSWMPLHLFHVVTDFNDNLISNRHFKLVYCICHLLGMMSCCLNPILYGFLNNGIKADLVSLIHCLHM
Description: Displacement of [125I]PYY from human recombinant Y5 receptor

in vitro = conditions: rat, hepatocytes
Description: Clearance in rat hepatocytes

in vivo [2] = conditions: rat, plasma, po, 10 mg/kg
Description: Plasma concentration in rat at 10 mg/kg, po after 2 hrs

Brain = conditions: rat, in vivo, po, 10 mg/kg, 2 h
Description: Drug level in rat brain at 10 mg/kg, po after 2 hrs

Rattus norvegicus [3] = assay: Inhibition of NPY-induced food intake in Sprague-Dawley rat at 10 mg/kg, po treated 2 hrs before [D-Trp34]NPY challenge; assay type: functional
Rattus norvegicus [4] = assay: Inhibition of [D-Trp34]NPY-induced food intake in Sprague-Dawley rat assessed as minimum effective dose treated po 2 hrs before [D-Trp34]NPY challenge; assay type: functional; conditions: read-out: MED
in vivo [5] = conditions: rat, CSF, po, 10 mg/kg
Description: Drug level in rat CSF at 10 mg/kg, po after 2 hrs

Rattus norvegicus [6] = assay: Inhibition of [D-Trp34]NPY-induced food intake in Sprague-Dawley rat at 0.3 mg/kg, po treated 2 hrs before [D-Trp34]NPY challenge; assay type: functional
Rattus norvegicus [7] = assay: Inhibition of [D-Trp34]NPY-induced food intake in Sprague-Dawley rat at 3 mg/kg, po treated 2 hrs before [D-Trp34]NPY challenge; assay type: functional
[8] = molecular target: T2, Neuropeptide Y receptor type 5 (Rattus norvegicus, UniProt Q63634)
T2 sequence (Q63634 whole entry): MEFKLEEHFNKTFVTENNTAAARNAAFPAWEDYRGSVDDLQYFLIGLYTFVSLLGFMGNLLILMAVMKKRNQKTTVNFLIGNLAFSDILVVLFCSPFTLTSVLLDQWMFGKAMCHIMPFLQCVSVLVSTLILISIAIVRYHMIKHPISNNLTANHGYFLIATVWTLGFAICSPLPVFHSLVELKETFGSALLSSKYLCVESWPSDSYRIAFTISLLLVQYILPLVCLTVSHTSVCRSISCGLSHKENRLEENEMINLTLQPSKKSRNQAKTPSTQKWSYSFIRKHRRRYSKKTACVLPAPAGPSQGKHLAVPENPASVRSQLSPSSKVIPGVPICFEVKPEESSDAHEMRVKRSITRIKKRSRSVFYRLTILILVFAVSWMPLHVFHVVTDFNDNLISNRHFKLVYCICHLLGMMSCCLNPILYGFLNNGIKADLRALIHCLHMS
Description: Inhibition of rat Y5 receptor

Rattus norvegicus [9] = assay: Inhibition of [D-Trp34]NPY-induced food intake in Sprague-Dawley rat at 10 mg/kg, po treated 2 hrs before [D-Trp34]NPY challenge; assay type: functional
Rattus norvegicus [10] = assay: Inhibition of [D-Trp34]NPY-induced food intake in Sprague-Dawley rat at 1 mg/kg, po treated 2 hrs before [D-Trp34]NPY challenge; assay type: functional
Mus musculus [11] = species: Mus musculus; assay: Ex vivo Y5 receptor occupancy in mouse brain at plasma level of 10 to 20 ng/ml; assay type: functional, organism-based
CYP3A = assay: Inhibition of CYP3A at 10 uM; assay type: ADME
in vivo [12] = conditions: rat, CSF/plasma, po, 10 mg/kg
Description: Ratio of drug level in CSF to plasma in rat at 10 mg/kg, po after 2 hrs

Mus musculus [13] = species: Mus musculus; assay: Ex vivo Y5 receptor occupancy in mouse brain at plasma level of 100 to 200 ng/ml; assay type: functional, organism-based
[14] = Ratio of drug level in brain to plasma in rat at 10 mg/kg, po after 2 hrs; assay type: ADME, organism-based; set-up: dose 10 mg/kg, route oral; conditions: read-out: BPR

O=C1O[C@]2(CC[C@H](C(=O)Nc3cnc(-c4ccccc4)cn3)CC2)c2cnccc21
logD (physchem): 3.39
IC50 [1]: 2.2 nM
CLhep predicted (in vitro): 36 mL/min/kg

O=C1O[C@]2(CC[C@H](C(=O)Nc3ccn(-c4ccccc4F)n3)CC2)c2cnccc21 [MK-0557]
concentration at 2 h (in vivo [2]): 1590 nM
Drug uptake (Brain): 2.15 nmol/g
inhibition in vivo at 10 mg/kg (Rattus norvegicus [3]): 22%
logD (physchem): 3.2
minimal effective dose (Rattus norvegicus [4]): 3 mg/kg
concentration at 2 h (in vivo [5]): 152 nM
inhibition in vivo at 0.3 mg/kg (Rattus norvegicus [6]): 27%
inhibition in vivo at 3 mg/kg (Rattus norvegicus [7]): 61%
IC50 [8]: 2.1 nM
inhibition in vivo at 10 mg/kg (Rattus norvegicus [9]): 83%
inhibition in vivo at 1 mg/kg (Rattus norvegicus [10]): 43%
Activity (Mus musculus [11]): Active
CLhep predicted (in vitro): 9 mL/min/kg

O=C1O[C@]2(CC[C@H](C(=O)Nc3ccn(-c4cccc(F)c4)n3)CC2)c2cnccc21
concentration at 2 h (in vivo [2]): 1090 nM
Drug uptake (Brain): 1.36 nmol/g
logD (physchem): 3.4
IC50 [1]: 2 nM
concentration at 2 h (in vivo [5]): 77 nM
CLhep predicted (in vitro): 10 mL/min/kg

O=C1O[C@]2(CC[C@H](C(=O)Nc3ccn(-c4ccc(F)cc4)n3)CC2)c2cnccc21
concentration at 2 h (in vivo [2]): 890 nM
Drug uptake (Brain): 1.24 nmol/g
logD (physchem): 3.2
minimal effective dose (Rattus norvegicus [4]): 1 mg/kg
IC50 [1]: 0.92 nM
concentration at 2 h (in vivo [5]): 81 nM
IC50 [8]: 2.1 nM
CLhep predicted (in vitro): 7 mL/min/kg

O=C1O[C@]2(CC[C@H](C(=O)Nc3cc(-c4ccccc4)n[nH]3)CC2)c2ccncc21
inhibition at 10 µM (CYP3A): > 50%
IC50 [1]: 2.9 nM
CLhep predicted (in vitro): 9 mL/min/kg

O=C1O[C@]2(CC[C@H](C(=O)Nc3cc(-c4ccccc4)[nH]n3)CC2)c2ncccc21
IC50 [1]: 26 nM

O=C1O[C@]2(CC[C@H](C(=O)Nc3cnn(-c4ccccc4)c3)CC2)c2cnccc21
concentration at 2 h (in vivo [2]): 1520 nM
Kp at 2 h (in vivo [12]): 0.115
Drug uptake (Brain): 0.39 nmol/g
IC50 [1]: 2.2 nM
concentration at 2 h (in vivo [5]): 45 nM
CLhep predicted (in vitro): < 1 mL/min/kg

O=C1O[C@]2(CC[C@H](C(=O)Nc3cnn(-c4ccccc4)c3)CC2)c2cccnc21
concentration at 2 h (in vivo [2]): 6680 nM
Kp at 2 h (in vivo [12]): 0.18
Drug uptake (Brain): 0.5 nmol/g
logD (physchem): 2.9
minimal effective dose (Rattus norvegicus [4]): 10 mg/kg
IC50 [1]: 1.3 nM
concentration at 2 h (in vivo [5]): 91 nM
IC50 [8]: 4.7 nM
CLhep predicted (in vitro): 1 mL/min/kg

O=C1O[C@]2(CC[C@H](C(=O)Nc3ccc(-c4ccccc4)cn3)CC2)c2cnccc21
concentration at 2 h (in vivo [2]): 20 nM
IC50 [1]: 2.1 nM
CLhep predicted (in vitro): 14 mL/min/kg

O=C1O[C@]2(CC[C@H](C(=O)Nc3cc(-c4ccccc4)on3)CC2)c2cnccc21
concentration at 2 h (in vivo [2]): 290 nM
IC50 [1]: 2.1 nM
CLhep predicted (in vitro): 6 mL/min/kg

O=C1O[C@]2(CC[C@H](C(=O)Nc3ncc(-c4ccccc4)cn3)CC2)c2ncccc21
CLhep predicted (in vitro): 49 mL/min/kg

O=C1O[C@]2(CC[C@H](C(=O)Nc3cc(-c4ccccc4)[nH]n3)CC2)c2cnccc21
concentration at 2 h (in vivo [2]): 6100 nM
Drug uptake (Brain): 0.5 nmol/g
logD (physchem): 3.16
IC50 [1]: 2.7 nM
concentration at 2 h (in vivo [5]): 59 nM
CLhep predicted (in vitro): 3 mL/min/kg

O=C1O[C@]2(CC[C@H](C(=O)Nc3ncc(-c4ccccc4)cn3)CC2)c2ccncc21
inhibition at 10 µM (CYP3A): > 50%
CLhep predicted (in vitro): 42 mL/min/kg

O=C1O[C@]2(CC[C@H](C(=O)Nc3csc(-c4ccccc4)n3)CC2)c2cnccc21
concentration at 2 h (in vivo [2]): 190 nM
IC50 [1]: 1.2 nM
CLhep predicted (in vitro): 12 mL/min/kg

O=C1O[C@]2(CC[C@H](C(=O)Nc3cc(-c4ccccc4)[nH]n3)CC2)c2cccnc21
IC50 [1]: 5.4 nM
CLhep predicted (in vitro): 2 mL/min/kg

O=C1O[C@]2(CC[C@H](C(=O)Nc3ncc(-c4ccccc4)cn3)CC2)c2cccnc21
CLhep predicted (in vitro): 49 mL/min/kg

O=C1O[C@]2(CC[C@H](C(=O)Nc3cc(-c4ccccc4)on3)CC2)c2ncccc21
logD (physchem): 3.7
IC50 [1]: 2.4 nM
CLhep predicted (in vitro): 36 mL/min/kg

O=C1O[C@]2(CC[C@H](C(=O)Nc3cnc(-c4ccccc4)cn3)CC2)c2ncccc21
IC50 [1]: 3.9 nM
CLhep predicted (in vitro): 39 mL/min/kg

O=C1O[C@]2(CC[C@H](C(=O)Nc3ncc(-c4ccccc4)cn3)CC2)c2cnccc21
CLhep predicted (in vitro): 39 mL/min/kg

O=C1OC2(CCC(C(=O)Nc3cnc(-c4ccccc4)cn3)CC2)c2ccccc21 (configuration not stated)
Activity (Mus musculus [13]): Active
minimal effective dose (Rattus norvegicus [4]): > 10 mg/kg
IC50 [8]: 2.5 nM

O=C1O[C@]2(CC[C@H](C(=O)Nc3ccn(-c4ccccc4)n3)CC2)c2cnccc21
concentration at 2 h (in vivo [2]): 2940 nM
Kp at 2 h (in vivo [12]): 0.088
Kp at 2 h [14]: 1.06
Drug uptake (Brain): 3.13 nmol/g
logD (physchem): 3.1
minimal effective dose (Rattus norvegicus [4]): > 10 mg/kg
IC50 [1]: 2.3 nM
concentration at 2 h (in vivo [5]): 276 nM
IC50 [8]: 2.2 nM
CLhep predicted (in vitro): 20 mL/min/kg

O=C1O[C@]2(CC[C@H](C(=O)Nc3cnc(-c4ccccc4)cn3)CC2)c2ccncc21
inhibition at 10 µM (CYP3A): > 50%
IC50 [1]: 2.4 nM
CLhep predicted (in vitro): 42 mL/min/kg

O=C1O[C@]2(CC[C@H](C(=O)Nc3ccn(-c4ccccc4)n3)CC2)c2cccnc21
concentration at 2 h (in vivo [2]): 6460 nM
Kp at 2 h (in vivo [12]): 0.15
Drug uptake (Brain): 2.79 nmol/g
logD (physchem): 2.8
minimal effective dose (Rattus norvegicus [4]): 3 mg/kg
IC50 [1]: 4.4 nM
concentration at 2 h (in vivo [5]): 416 nM
IC50 [8]: 1.7 nM
CLhep predicted (in vitro): 4 mL/min/kg

O=C1O[C@]2(CC[C@H](C(=O)Nc3cnc(-c4ccccc4)cn3)CC2)c2cccnc21
concentration at 2 h (in vivo [2]): 3750 nM
Drug uptake (Brain): 2.5 nmol/g
logD (physchem): 3.1
IC50 [1]: 4.2 nM
concentration at 2 h (in vivo [5]): 174 nM
CLhep predicted (in vitro): 18 mL/min/kg

O=C1O[C@]2(CC[C@H](C(=O)Nc3cnc(-c4ccccc4)cn3)CC2)c2ccccc21
logD (physchem): > 4
IC50 [1]: 1.5 nM
CLhep predicted (in vitro): 35 mL/min/kg

O=C1O[C@]2(CC[C@H](C(=O)Nc3cnn(-c4ccccc4)n3)CC2)c2cnccc21
concentration at 2 h (in vivo [2]): 680 nM
Kp at 2 h (in vivo [12]): 0.032
Drug uptake (Brain): 1.33 nmol/g
logD (physchem): 3.4
IC50 [1]: 0.89 nM
concentration at 2 h (in vivo [5]): 42 nM
CLhep predicted (in vitro): 21 mL/min/kg
